The source of these data is the OligoGym collection.

These antisense oligonucleotides have a phosphorothioate backbone; sugars and methylation of C are not fully specified.
Further: test concentration or dose not given here.

The target in one series is AKT3. Particulars: ASO.
GTCCTGGTTGTAGAAAGG registered a remaining target (mRNA or protein) (fraction of control) of 0.58. In turn, GTCTCAGATGTTACTTGA returned a remaining target (mRNA or protein) (fraction of control) of 0.71. GTCTGCTACAGCCTGGAT registered a remaining target (mRNA or protein) (fraction of control) of 0.92. Regarding GTTGTAGAGGCATCCATC, the remaining target (mRNA or protein) (fraction of control) was no less than 1.

Regarding TAATTTCTTTTGCGTCAT, the remaining target (mRNA or protein) (fraction of control) is no less than 1. On to TACTCCAGAGAAGAAACT, for which the remaining target (mRNA or protein) (fraction of control) came to 0.85. TAGTATCTGTCTCAGATG gave a remaining target (mRNA or protein) (fraction of control) of 0.7. TCATACATGACAACCCCT displayed a remaining target (mRNA or protein) (fraction of control) of 0.13.

For the sequence TCATTAACTGGCATTTTG, the remaining target (mRNA or protein) (fraction of control) was no less than 1. TCATTTCATACATGACAA: the remaining target (mRNA or protein) (fraction of control) is no less than 1. On to TCCCCTCTTCTGAACCCA, for which the remaining target (mRNA or protein) (fraction of control) amounted to 0.55.

The sequence TCTATAACAGTAGTCCAC displayed a remaining target (mRNA or protein) (fraction of control) of no less than 1. In turn, TCTCATGGTCCTGGTTGT came in with a remaining target (mRNA or protein) (fraction of control) of 0.57. The sequence TCTGGTCCTCCACCAAGG yielded a remaining target (mRNA or protein) (fraction of control) of 0.26. On to TCTTCCTCTCCTATATTA, for which the remaining target (mRNA or protein) (fraction of control) is no less than 1. Regarding TCTTCTTGCCTCTGCAGT, the remaining target (mRNA or protein) (fraction of control) is no less than 1.

The sequence TGTAGAAAGGTAACCTCC showed a remaining target (mRNA or protein) (fraction of control) of 0.82. The sequence TGTCCATTCTTCCCTTTC returned a remaining target (mRNA or protein) (fraction of control) of no less than 1. Still for that read-out and setting: the result for TGTCTCATAATTTCTTTT reads no less than 1; that for TGTTCGAGGAAATTTAAT, no less than 1.

Take TGTTCTCTCTATAACAGT: the remaining target (mRNA or protein) (fraction of control) was determined as 0.94. TTCCATTAATATTAATTC returned a remaining target (mRNA or protein) (fraction of control) of no less than 1. Consider TTCCCTTTCCTCTGGAGT, for which the remaining target (mRNA or protein) (fraction of control) was 0.65. As to TTGGACTACAATTCATTC, the remaining target (mRNA or protein) (fraction of control) worked out at 0.72. The same measure, in the same setting: the result for TTGGCTTTGGTCGTTCTG reads no less than 1; that for TTGGTCGTTCTGTTTTCA, no less than 1; that for TTTCCTCTGGAGTATCTA, no less than 1.

The sequence TTTGCATCTGAAGAGAGT registered a remaining target (mRNA or protein) (fraction of control) of 0.77. As for TTTGCCACTGAAAAGTTG, the remaining target (mRNA or protein) (fraction of control) is no less than 1. Sequence TTTGTGAAGTTGGACTAC registered a remaining target (mRNA or protein) (fraction of control) of no less than 1.

The next series has as its target GNA13. Particulars: ASO.
For AAAAGATATTAAAACAGC, the remaining target (mRNA or protein) (fraction of control) is no less than 1.

In the case of AAAGTCGTATTCATGGAT, the remaining target (mRNA or protein) (fraction of control) is no less than 1. With AACAGATCAAAGCCTGCA, the remaining target (mRNA or protein) (fraction of control) was 0.64. The sequence AAGCAAGTCTGTCTTGTT registered a remaining target (mRNA or protein) (fraction of control) of 0.79. On the same count and under the same terms, the result for AAGCATTTTGAAAGGAAC reads no less than 1.

For AAGGTGGACTTGCCGCTC, the remaining target (mRNA or protein) (fraction of control) is 0.24.

A further series concerns the target E2F1. Particulars: ASO.
Turning to AACCCCACACCCCTCCTCCC, the remaining target (mRNA or protein) (fraction of control) was 0.86. The sequence AACCTTTAAGACAGAAGTGC showed a remaining target (mRNA or protein) (fraction of control) of 0.74. AAGCCCTGTCAGAAATCCAG returned a remaining target (mRNA or protein) (fraction of control) of 0.58. In the case of AAGCCTCCCCACCTGGCCTG, the remaining target (mRNA or protein) (fraction of control) worked out at 0.28. The sequence AAGTCCCGGCCACGGAATTC gave a remaining target (mRNA or protein) (fraction of control) of 0.87.

Sequence AAGTGGTAGTCGAGGGCCTC gave a remaining target (mRNA or protein) (fraction of control) of 0.77. The sequence ACACACACATGCTCACACAC had a remaining target (mRNA or protein) (fraction of control) of 0.56. Still for that read-out and setting: the result for ACACCACACAGACTCCTTCC reads 0.6; that for ACCTACGGTCTCCTCAGGGC, 0.21.

The sequence ACCTCGGCAGCCCAGTTCAG gave a remaining target (mRNA or protein) (fraction of control) of no less than 1. On to AGAAGTCCTCCCGCACATGC, for which the remaining target (mRNA or protein) (fraction of control) came to 0.51. The same measure, in the same setting: the result for AGGAAGCGCTTGGTGGTCAG reads 0.72. With AGGGACCCCTGCCCTTGCTC, the remaining target (mRNA or protein) (fraction of control) worked out at 0.23.

AGGTCTCTGATGCCCTCGCC: the remaining target (mRNA or protein) (fraction of control) was found to be 0.53. Sequence ATGAGCTGGATGCCCTCAAG gave a remaining target (mRNA or protein) (fraction of control) of 0.56. ATGTCATAGATGCGCCGCTT yielded a remaining target (mRNA or protein) (fraction of control) of 0.77. In turn, CACAGGAAAACATCGATCGG displayed a remaining target (mRNA or protein) (fraction of control) of 0.9. Still for that read-out and setting: as for CACCCAGGCCTCAGTTCCTT, the figure is 0.92. Sequence CACCGTCCTACACGCCCAGC returned a remaining target (mRNA or protein) (fraction of control) of 0.44.

On to CACCTTTTCCTGGATGGCGG, for which the remaining target (mRNA or protein) (fraction of control) is 0.47. Same read-out and setting: as for CAGCTGCTGCTCGCTCTCCT, the figure is 0.63; as for CAGGCGGCGGCGGCGGCGCG, 0.82.
